This assay has as its system agr. Nature of the assay: agr YFP transcriptional reporter assay (S. aureus AH1677 with pDB59). The following applies: Staphylococcus aureus, 24 h, read-out: IC50 in the agr reporter assay. Type of assay: cell-based. The essentials:
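S. aureus AH1677 carrying the agr-YFP reporter, diluted 1:50 in BHI with 1:3 compound dilutions, incubated ~24 h at 37 °C with shaking. YFP fluorescence (ex 510/em 544) corrected for BHI background and OD600, normalized to DMSO vehicle. IC50 from 3-parameter regression; technical triplicate, ≥3 biological replicates.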
(A reporter such as luciferase makes a cellular process visible.)

Turning to `CC(C)c1ccc(S(=O)(=O)c2nnn3c2nc(O)c2ccccc23)cc1` [Compound 6, savirin], the 50% inhibitory concentration (IC50) (commonly the concentration needed to halve the response being measured) came to 5.5 µM.

The values are drawn from patent publication US12070445B2, “System and assay for monitoring production/release of membrane-lytic toxins in bacteria and compounds for modulating same” (priority 2021, dated 2024).
